Source: patent US9526785B2, “Pharmaceuticals for oral delivery” (Enteris BioPharma, Inc., priority 2013, dated 2016)
Several values for one entry are separate records, joined by “and”; a condition that tells them apart may be missing. Equal entries are not always repeated. Where two headings read alike, the source gives them in different places. Values belong to the compound of their own block, whether it stands above or below them.

Key:
[1] = Kanamycin and tobramycin plasma PK after IV bolus in dogs; format: in vivo, Beagle dogs
Experimental: (§1) Adult Beagle dogs weighing approximately 10 to 15 kg were used in the study. The animals were housed at Sinclair Research Center, Columbia, Mo. either individually or in pairs in over-sized dog runs. […] A 12-hour light/12-hour dark photoperiod was maintained. Room temperature was set to be maintained at 20±5° C. Relative humidity was monitored but not controlled. Animal room and pen cleaning were performed according to the testing facility (Sinclair) SOPs.
(§2) Animals were fasted overnight prior to drug administration and throughout the blood collection period.
(§3) Adult female Beagle dogs, weighing 9-15 kg were used in the oral and IV studies. Dogs were fasted overnight before the beginning of each study but were allowed free access to water. On the day of the study, one pre-dose blood sample of 3 mL was collected from each animal.
(§4) After administration of the drug, 3 mL blood samples were collected from the brachial vein at various time-points up to 240 minutes (4 hours) post-administration. Blood samples were collected into new heparinized monovette sampling syringes. The samples were placed on ice before being centrifuged for 10 minutes at approximately 2750 rpm at 2-8° C. Each tube was labeled with the dog ID # and time-point, and they were stored at −20° C. pending shipment.
Plasma samples were diluted appropriately with the kit assay buffer.
The maximum plasma concentration (Cmax) values and their times of occurrence (Tmax) were obtained directly from the plasma concentration vs. time profiles. The areas under the plasma concentration-time curves (AUClast) were estimated by the linear trapezoidal rule from time zero to the time of the last observed plasma concentration.

in vivo = details: female, beagle, dog, po
Experimental: as §1, §2, §3, §4
Plasma samples were diluted appropriately with the kit assay buffer. […]

[2] = female, beagle, dog, in vivo, iv, 0.1 mg

- concentration at 0 min ([1]; female, Beagle, dog, plasma, iv, 0.1 mg, single IV bolus 0.10 mg, 0 min, read-out: Plasma Concentration, Mean): 0 ng/mL
- concentration at 0 min ([1]; female, Beagle, dog, plasma, iv, 0.1 mg, single IV bolus 0.10 mg, 0 min, read-out: Plasma Concentration, individual dogs): 0 ng/mL
- concentration at 5 min ([1]; female, Beagle, dog, plasma, iv, 0.1 mg, single IV bolus 0.10 mg, 5 min): 40.8 ng/mL
- concentration at 10 min ([1]; female, Beagle, dog, plasma, iv, 0.1 mg, single IV bolus 0.10 mg, 10 min): 38.6 ng/mL
- concentration at 15 min ([1]; female, Beagle, dog, plasma, iv, 0.1 mg, single IV bolus 0.10 mg, 15 min): 40.3 ng/mL
- concentration at 20 min ([1]; female, Beagle, dog, plasma, iv, 0.1 mg, single IV bolus 0.10 mg, 20 min): 32.1 ng/mL
- concentration at 30 min ([1]; female, Beagle, dog, plasma, iv, 0.1 mg, single IV bolus 0.10 mg, 30 min): 34.6 ng/mL
- concentration at 40 min ([1]; female, Beagle, dog, plasma, iv, 0.1 mg, single IV bolus 0.10 mg, 40 min, read-out: Plasma Concentration, Mean): 27.2 ng/mL
- concentration at 40 min ([1]; female, Beagle, dog, plasma, iv, 0.1 mg, single IV bolus 0.10 mg, 40 min, read-out: Plasma Concentration, individual dogs): 29.9 ng/mL
- concentration at 60 min ([1]; female, Beagle, dog, plasma, iv, 0.1 mg, single IV bolus 0.10 mg, 60 min, read-out: Plasma Concentration, Mean): 25.6 ng/mL
- concentration at 60 min ([1]; female, Beagle, dog, plasma, iv, 0.1 mg, single IV bolus 0.10 mg, 60 min, read-out: Plasma Concentration, individual dogs): 31 ng/mL
- concentration at 90 min ([1]; female, Beagle, dog, plasma, iv, 0.1 mg, single IV bolus 0.10 mg, 90 min): 9.24 ng/mL
- concentration at 120 min ([1]; female, Beagle, dog, plasma, iv, 0.1 mg, single IV bolus 0.10 mg, 120 min): 10 ng/mL
- concentration at 240 min ([1]; female, Beagle, dog, plasma, iv, 0.1 mg, single IV bolus 0.10 mg, 240 min): 1.61 ng/mL
- AUC ([1]; female, Beagle, dog, plasma, iv, 0.1 mg, single IV bolus 0.10 mg, read-out: AUC, Mean (converted)): 54.2 ng·h/mL
- AUC ([1]; female, Beagle, dog, plasma, iv, 0.1 mg, single IV bolus 0.10 mg, read-out: AUC, individual dogs (converted)): 46.5 ng·h/mL
- Cmax ([1]; female, Beagle, dog, plasma, iv, 0.1 mg, single IV bolus 0.10 mg, read-out: Cmax, Mean): 50 ng/mL
- AUC, individual dogs ([1]; single IV bolus 0.10 mg): 3806 ng·min/mL and 3169 ng·min/mL
- Cmax, Mean ([1]; single IV bolus 0.10 mg): 50.21 ng/mL
- Tmax, individual dogs ([1]; single IV bolus 0.10 mg): 15 min and 60 min
- Plasma Concentration, individual dogs ([1]; single IV bolus 0.10 mg, 0 min): 0 ng/mL
- Plasma Concentration, individual dogs ([1]; single IV bolus 0.10 mg, 10 min): 37.75 ng/mL and 7.52 ng/mL
- Plasma Concentration, individual dogs ([1]; single IV bolus 0.10 mg, 15 min): 9.70 ng/mL
- Plasma Concentration, individual dogs ([1]; single IV bolus 0.10 mg, 20 min): 39.87 ng/mL and 14.59 ng/mL
- Plasma Concentration, individual dogs ([1]; single IV bolus 0.10 mg, 40 min): 34.08 ng/mL and 17.58 ng/mL
- Plasma Concentration, individual dogs ([1]; single IV bolus 0.10 mg, 60 min): 27.79 ng/mL and 18.01 ng/mL
- Plasma Concentration, individual dogs ([1]; single IV bolus 0.10 mg, 90 min): 0 ng/mL and 9.81 ng/mL and 17.91 ng/mL
- Plasma Concentration, individual dogs ([1]; single IV bolus 0.10 mg, 120 min): 0 ng/mL and 13.36 ng/mL and 16.63 ng/mL
- Plasma Concentration, individual dogs ([1]; single IV bolus 0.10 mg, 240 min): 0 ng/mL (2×) and 4.84 ng/mL
Structure (SMILES): NC[C@H]1O[C@H](O[C@H]2[C@H](O)[C@@H](O[C@H]3O[C@H](CO)[C@@H](O)[C@H](N)[C@H]3O)[C@H](N)C[C@@H]2N)[C@H](O)[C@@H](O)[C@@H]1O [Kanamycin]
- Cmax, individual dogs ([1]; single IV bolus 0.10 mg): 77.73 ng/mL and 54.88 ng/mL and 18.01 ng/mL
- Plasma Concentration, individual dogs ([1]; single IV bolus 0.10 mg, 5 min): 77.73 ng/mL and 40.56 ng/mL and 3.97 ng/mL
- Plasma Concentration, individual dogs ([1]; single IV bolus 0.10 mg, 30 min): 43.81 ng/mL and 42.52 ng/mL and 17.48 ng/mL

- bioavailability (in vivo): 15%
- AUC ([1]; female, Beagle, dog, in vivo, iv, 0.1 mg, AUC, Mean): 29.7 ng·h/mL
- Cmax ([1]; female, Beagle, dog, in vivo, iv, 0.1 mg, Cmax, individual dogs): 38.4 ng/mL
- Tmax ([1]; female, Beagle, dog, in vivo, iv, 0.1 mg, individual dogs): 5 min
- Cmax, Mean [1, 2]: 31.22 ng/mL
- Tmax, individual dogs [1, 2]: 5 min
- Cmax ([1]; female, beagle, dog, in vivo, iv, 0.1 mg, Cmax, Mean): 31 ng/mL
- Tmax ([1]; female, beagle, dog, in vivo, iv, 0.1 mg, Mean): 5 min
Structure (SMILES): NC[C@H]1O[C@H](O[C@H]2[C@H](O)[C@@H](O[C@H]3O[C@H](CO)[C@@H](O)[C@H](N)[C@H]3O)[C@H](N)C[C@@H]2N)[C@H](N)C[C@@H]1O [Tobramycin]
